{"source": "patent US9867923B2", "about": "“Reducing soluble urokinase receptor in the circulation” (University of Miami, priority 2011, dated 2018)", "key": {"[1]": {"experiment": "Retrospective study of recurrent or de novo FSGS after renal transplantation: renal parameters pre-post treatment", "type": "in vivo, human", "settings": "for Mean Foot Process Effacement, Mean Post ± SD / Proteinuria, Mean Post ± SD / Serum Creatinine, Mean Post ± SD: post-treatment; for Mean Foot Process Effacement, Mean Pre ± SD / Proteinuria, Mean Pre ± SD / Serum Creatinine, Mean Pre ± SD: pre-treatment", "description": "Treatment with plasmapheresis (PXP) started at the time of FSGS recurrence or de novo manifesting by the onset or worsening of proteinuria. Subjects completed a median of 21 plasmapheresis sessions (IQR: 10-23). Twelve subjects were refractory to plasmapheresis and received adjunctive rituximab infusion. Eight (32%) subjects had complete remission, and an additional 12 (48%) individuals achieved partial remission. With treatment (Table 5), the overall mean serum creatinine improved from 3.1 mg/dl±2.3 mg/dl to 2.1 mg/dl±1.2 mg/dl (P=0.07), and the mean eGFR improved from 35.6 ml/min±19.4 ml/min to 46.0 ml/min±24.3 ml/min per 1.73 m^2 (P=0.01). Additionally, among responders the serum creatinine declined further from 3.1 mg/dl±2.5 mg/dl to 1.9 mg/dl±0.6 mg/dl (P=0.48).\nWe conducted a retrospective observational study of all adult renal transplant recipients who underwent renal transplantation between Jan. 1, 2003 to Dec. 31, 2011, and developed recurrent or de novo FSGS after kidney transplantation at a single tertiary hospital. We identified 105 renal transplant recipients aged 18 years and older. Ninety-three had native kidney biopsy-proven FSGS; 12 having a probable FSGS diagnosis. Twenty-five individuals developed de novo FSGS (n=4) and recurrent FSGS (n=21) following renal transplantation. Recurrent FSGS was defined by the presence of proteinuria (more than 1 g/24 hours) in individuals who were anuric prior to renal transplantation ([…]) or worsening proteinuria among those who were not anuric prior to renal transplantation (n=15). De novo FSGS was defined as the new onset of proteinuria following renal transplantation in a recipient whose primary cause of ESRD was not attributed to FSGS. The diagnosis was confirmed by the presence of podocyte foot process effacement on the allograft biopsy obtained prior to or within 14 days of treatment commencement. The Johns Hopkins University School of Medicine Institutional Review Board approved this study.\nSocio-demographic and clinical data were abstracted from patient medical records using double data entry from the time of renal transplantation to three years following renal transplantation or the last available clinical follow-up. Donor clinical characteristics collected included donor vital status, relatedness to the recipient, and ABO-compatibility with recipient. Recipient clinical characteristics included age at FSGS diagnosis, primary cause of ESRD, number of prior renal transplantations, duration among those receiving dialysis, serum creatinine and proteinuria defined by urine protein-to-creatinine ratio. Glomerular filtration rate (eGFR) was estimated using the CKD-Epi equation which adjusts for age, gender, and race (Levey et al., Ann. Intern. Med. 150:604-612, 2009). Recipients were treated with plasmapheresis. Those with persistently significant proteinuria were also given one or two rituximab infusions. Complete response was defined by a decrease in proteinuria to below 1 g/g upon completion of the treatment course and/or on the last available quantification of proteinuria. Partial response to therapy was defined as a decline in proteinuria at the end of treatment by 50% from the peak proteinuria level, but with proteinuria remaining 1 g/g or greater at the end of treatment. Renal histopathology was assessed by a renal pathologist using light microscopy, immunofluorescence and electron microscopy. The degree of podocyte foot process effacement was based upon biopsy reports as well as secondary assessments of the electron microscopy by a second renal pathologist blinded to the original biopsy report and the recipient's outcome. These two assessments were then averaged to obtain the mean podocyte foot process effacement, which was categorized as <25% (mild), 25%-74% (moderate), and 75% or greater (severe). Baseline electron microscopy results were obtained from renal biopsies performed prior or shortly after the initiation of therapy. […]"}, "[2]": {"settings": "cited from earlier work"}, "[3]": {"test_system": "circulating suPAR", "experiment": "Serum suPAR in FSGS-CT cohort by treatment arm", "type": "in vivo, human", "settings": "for change in serum suPAR level from baseline to 26 weeks: FSGS-CT patients, MMF arm is MMF/dexamethasone", "description": "(§1) To explore the effect of treatment on suPAR levels in the circulation, samples were analyzed in patients who were randomly assigned to either the CSA or MMF/dexamethasone arm of the trial. At baseline, there was no difference between the two treatment arms in age at sampling, age at disease onset, gender, race, proteinuria, serum albumin, serum creatinine, or eGFR (FIG. 7) as well as circulating suPAR levels by univariate analysis. […] When examining the alteration from baseline to 26 weeks, suPAR level was increased in CSA arm, but decreased in MMF arm and the changes in suPAR levels between the two arms were significant (P<0.05).\nFSGS-CT is a randomized controlled study that compared the efficacy of cyclosporine (CSA) to the combination of mycophenolate mofetil (MMF) and dexamethasone. Key inclusion criteria were age 2-40 years, eGFR>40 ml/min per 1.73 m^2, biopsy-proven FSGS, and resistance to corticosteroid therapy. Exclusion criteria included secondary FSGS, obesity, or prior experimental therapy. All subjects received lisinopril or losartan in those who were intolerant of angiotensin converting enzyme inhibitor. Subjects were treated for 52 weeks. The primary outcome was normalization of proteinuria defined as a urine protein:creatinine ratio (Up/c)<0.2 in a first morning urine sample after 52 weeks of active treatment with the study medication(s). The main secondary outcome was based on the level of proteinuria at 78 weeks, six months after discontinuation of the study drugs. Subjects were seen 11 times during the treatment period and, at each visit, blood pressure was measured and blood and urine were obtained to determine serum creatinine, eGFR, albumin, cholesterol concentration, and proteinuria (Gipson et al., Kidney Int'l 80:868-878, 2011). The serum samples collected at baseline (W01) and 26 weeks (W26) on treatment (n=35 in each arm) were retrieved from the NIDDK Biorepository for suPAR measurement.\n(§2) The measurement of serum suPAR was performed using a Quantikine human uPAR immunoassay kit (R&D Systems)."}, "[4]": {"experiment": "Proteinuria (Up/c) and serum creatinine in FSGS-CT cohort by treatment arm", "type": "in vivo, human", "description": "as §1\nFSGS-CT is a randomized controlled study that compared the efficacy of cyclosporine (CSA) to the combination of mycophenolate mofetil (MMF) and dexamethasone. Key inclusion criteria were age 2-40 years, eGFR>40 ml/min per 1.73 m^2, biopsy-proven FSGS, and resistance to corticosteroid therapy. Exclusion criteria included secondary FSGS, obesity, or prior experimental therapy. […] Subjects were seen 11 times during the treatment period and, at each visit, blood pressure was measured and blood and urine were obtained to determine serum creatinine, eGFR, albumin, cholesterol concentration, and proteinuria (Gipson et al., Kidney Int'l 80:868-878, 2011). […]"}, "[5]": {"test_system": "circulating suPAR", "experiment": "Circulating suPAR in PodoNet cohort by medication", "type": "in vivo, human", "settings": "medication at time of blood sampling", "text": "In contrast to FSGS-CT, where patients were randomly assigned to either CSA or MMF therapy, treatment in PodoNet was at the discretion of the attending physicians. For the purpose of this analysis, patients were grouped according to the medication they received at the time of blood sampling: MMF or a calcineurin inhibitor. […] Overall, there was no significant difference between the two groups based on their demographic features or laboratory measurements (e.g., proteinuria, serum albumin, eGFR, and serum creatinine).\nPodoNet is a consortium for clinical, genetic, and experimental study of steroid-resistant nephrotic syndrome (SRNS). The inclusion criteria are children (age 0-18 years old) with SRNS based on management protocols at the participating medical centers and adults with familial SRNS. Patients who were included into this study had biopsy proven FSGS (n=94). The treatment of subjects was clinically determined and managed by their attending physician.\nas §2"}}}
{"compound": "PXP + rituximab: plasmapheresis (PXP) with adjunctive rituximab infusion in subjects refractory to plasmapheresis", "values": [{"measurement": "Proteinuria, Most recent", "setting": "[1]; overall, n = 12", "result": "7 ± 12.7", "unit": "g/g"}, {"measurement": "Proteinuria, Peak", "setting": "[1]; overall, n = 12", "result": "12.5 ± 12.7", "unit": "g/g"}, {"measurement": "Mean Foot Process Effacement, Mean Post ± SD", "setting": "[1]; overall, n = 10", "result": "21 ± 27", "unit": "%"}, {"measurement": "Proteinuria, Mean Post ± SD", "setting": "[1]; overall, n = 12", "result": "6.6 ± 12.5", "unit": "g/g"}, {"measurement": "Serum Creatinine, Mean Post ± SD", "setting": "[1]; overall, n = 12", "result": "2.1 ± 0.88", "unit": "mg/dL"}, {"measurement": "Mean Foot Process Effacement, Mean Pre ± SD", "setting": "[1]; overall, n = 10", "result": "49 ± 32", "unit": "%"}, {"measurement": "Proteinuria, Mean Pre ± SD", "setting": "[1]; overall, n = 12", "result": "4.4 ± 3.1", "unit": "g/g"}, {"measurement": "Serum Creatinine, Mean Pre ± SD", "setting": "[1]; overall, n = 12", "result": "3 ± 2.7", "unit": "mg/dL"}, {"measurement": "Proteinuria, Last", "setting": "[1]; responders, n = 9", "result": "1.7 ± 1.2", "unit": "g/g"}, {"measurement": "Proteinuria, Peak", "setting": "[1]; responders, n = 9", "result": "7.6 ± 4.9", "unit": "g/g"}, {"measurement": "Mean Foot Process Effacement, Mean Post ± SD", "setting": "[1]; responders, n = 7", "result": "14 ± 14", "unit": "%"}, {"measurement": "Proteinuria, Mean Post ± SD", "setting": "[1]; responders, n = 9", "result": "1.9 ± 1.4", "unit": "g/g"}, {"measurement": "Serum Creatinine, Mean Post ± SD", "setting": "[1]; responders, n = 12", "result": "2.1 ± 0.7", "unit": "mg/dL"}, {"measurement": "Mean Foot Process Effacement, Mean Pre ± SD", "setting": "[1]; responders, n = 7", "result": "34 ± 27", "unit": "%"}, {"measurement": "Proteinuria, Mean Pre ± SD", "setting": "[1]; responders, n = 9", "result": "4.1 ± 3.4", "unit": "g/g"}, {"measurement": "Serum Creatinine, Mean Pre ± SD", "setting": "[1]; responders, n = 12", "result": "3 ± 2.96", "unit": "mg/dL"}]}
{"compound": "O=C[C@H](O)[C@@H](O)[C@@H](O)[C@H](O)CO", "note": "[galactose]", "values": [{"measurement": "proteinuria outcome", "setting": "[2]; dialysis-dependent patient (Savin et al., 2008)", "result": "no improvement of proteinuria"}, {"measurement": "nephrotic syndrome outcome", "setting": "[2]; oral galactose, patient resistant to corticosteroids, immunosuppression and plasmapheresis (De Smet et al., 2009)", "result": "remission for more than two years"}]}
{"compound": "COc1c(C)c2c(c(O)c1C/C=C(\\C)CCC(=O)OCCN1CCOCC1)C(=O)OC2", "note": "[MMF, mycophenolate mofetil]", "values": [{"measurement": "change in serum suPAR level from baseline to 26 weeks", "setting": "[3]", "result": "decreased"}, {"measurement": "change in serum suPAR level from baseline to 26 weeks", "setting": "[3]; listed as mycophenolate mofetil", "result": "decreased significantly"}, {"measurement": "serum suPAR level after treatment", "setting": "[3]; FSGS-CT, MMF-treated patients, mean ± SEM (±264), P<0.01", "result": 4113, "unit": "pg/mL"}, {"measurement": "serum suPAR level before treatment", "setting": "[3]; FSGS-CT, MMF-treated patients, mean ± SEM (±292)", "result": 5064, "unit": "pg/mL"}, {"measurement": "decrease in serum creatinine from baseline to 26 weeks, MMF arm compared to CSA arm", "setting": "[4]; P<0.001", "result": "significantly greater decrease"}, {"measurement": "decrease in Up/c from baseline to 26 weeks, MMF arm compared to CSA arm", "setting": "[4]; P<0.05", "result": "significantly greater decrease"}, {"measurement": "circulating suPAR level, patients who received the medication versus those who did not", "setting": "[5]", "result": "significantly lower"}]}
